Results on four compounds are retold here after patent publication US4656166A, “Antibiotic compounds derived from cephalosporins, process for their production and pharmaceutical compositions” (Sanofi, priority 1983, dated 1987).

In brackets after ≈: the same amount, converted by molar mass. Structures can show the parent of a compound that is named as a salt. Where two headings read alike, the source gives them in different places.

In assay [1] the test system is Serratia RL 72. In words: MIC, in vitro dilution method, Serratia RL 72 (Table III). It counts as cell-based. The settings on record: RL72. The procedure, abridged: (§1)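 Dilution-method MIC, in vitro, μg/ml.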
Assay [2] deals with Proteus vulgaris GN 76/C.1/3. In words: MIC on strain not producing beta-lactamase, Proteus vulgaris GN 76/C.1/3 (Table IV). The conditions noted are these: GN76, not producing beta-lactamases. It is filed as cell-based. The method, then:
(§2) To evaluate the stability of these products towards beta-lactamases, their MIC was determined on isogenic strains producing and not producing beta-lactamases.
(§3) The results are expressed in μg/ml in Table IV.

Assay [3] deals with Pseudomonas RL 112. The assay can be described thus: MIC, in vitro dilution method, Pseudomonas RL 112 (Table III). It is filed as cell-based. The settings on record: RL112. The procedure, abridged: as §1
Assay [4] has as its system Escherichia coli SOL 90. The assay can be described thus: MIC, in vitro dilution method, Escherichia coli SOL 90 (Table III). It is filed as cell-based. The settings on record: SOL90; Escherichia coli SOL 90; dilution method; read-out: MIC. The procedure, abridged: as §1
Assay [5] relates to Serrtia liquefaciens SL 1326 S. In words: MIC on strain not producing beta-lactamase, Serratia liquefaciens SL 1326 S (Table IV). It is filed as cell-based. The conditions noted are these: SL1326S, not producing beta-lactamases. The method, then: as §2, §3
The subject of assay [6] is Escherichia coli 255. The assay can be described thus: MIC on beta-lactamase producing strain Escherichia coli 255 (Table IV). The settings on record: Escherichia coli 255, producing beta-lactamases; read-out: MIC. It counts as cell-based. The method, then: as §2, §3
Assay [7] has as its system Escherichia coli 255/L.7. In words: MIC on strain not producing beta-lactamase, Escherichia coli 255/L.7 (Table IV). It is filed as cell-based. The method, then:
as §2, §3

The subject of assay [8] is Serrtia liquefaciens SL/326 A. In words: MIC on beta-lactamase producing strain Serratia liquefaciens SL/326 A (Table IV). It is filed as cell-based. The method, then:
as §2, §3

Assay [9] relates to Proteus vulgaris RL 99 bis. In words: MIC, in vitro dilution method, Proteus vulgaris RL 99 bis (Table III). It is filed as cell-based. The settings on record: RL99BIS; Proteus vulgaris RL 99 bis; dilution method; read-out: MIC. The procedure, abridged:
as §1

The subject of assay [10] is Klebsiella RO 30. In words: septicemic model of the mouse, Klebsiella RO 30 (Table V). It is filed as in vivo. The settings on record: RO30, sc, 96 h, mouse septicemia, sub-cutaneous, 4 days observation, read-out: DE50 (the source's name).
In assay [11] the test system is Enterobacter RO 154. The assay can be described thus: MIC, in vitro dilution method, Enterobacter RO 154 (Table III). The conditions noted are these: RO154; Enterobacter RO 154; dilution method; read-out: MIC. It is filed as cell-based. An outline of the steps: as §1
Assay [12] has as its system Escherichia coli SOL 90. The assay can be described thus: septicemic model of the mouse, Escherichia coli SOL 90 (Table V). The conditions noted are these: SOL90, sc, 96 h, mouse septicemia, sub-cutaneous, 1 to 5 hours after inoculation, 4 days observation, read-out: DE50 (the source's name). It counts as in vivo. The method, then: The therapeutic effectiveness of the products was determined on the septicemic model of the mouse. the septicemia was initiated by the intraperitoneal innoculation of 0.5 ml of a suitable dilution of a suspension of the Escherichia coli SOL 90 strain. The products were administered in solution in a phosphate buffer pH 7.0 in a volume of 0.2 ml sub-cutaneously to batches of 10 mice, 1 to 5 hours after innoculation of the microorganism. After 4 days of observation in the course of which the mortality was noted, the 50% effective doses (DE 50) were calculated by the Muench and Reed method.

The test system of assay [13] is Klebsiella RO 30. In words: MIC, in vitro dilution method, Klebsiella RO 30 (Table III). It is filed as cell-based. The conditions noted are these: RO30; Klebsiella RO 30; dilution method; read-out: MIC. An outline of the steps:
as §1

For assay [14], the system named is Citrobacter RL 49. The assay can be described thus: MIC, in vitro dilution method, Citrobacter RL 49 (Table III). It is filed as cell-based. The conditions noted are these: RL49; Citrobacter RL 49; dilution method; read-out: MIC. The procedure, abridged:
as §1

Assay [15] has as its system Proteus vulgaris GN 76/C.1. The assay can be described thus: MIC on beta-lactamase producing strain Proteus vulgaris GN 76/C.1 (Table IV). It is filed as cell-based. The conditions noted are these: GN76; Proteus vulgaris GN 76/C.1, producing beta-lactamases; read-out: MIC. The method, then: as §2, §3
Setting [16] is: Escherichia coli 255/L.7 *, not producing beta-lactamases, read-out: MIC.

Consider `CC(C)(O/N=C(\C(=O)NC1C(=O)N2C(C(=O)O)=C(COC(=O)CCCCCN)C[S+]([O-])C12)c1csc(N)n1)C(=O)O` (stereo not shown) [41 855], for which the minimal inhibitory concentration (MIC) (in general, the lowest concentration that inhibits growth of the organism) is 0.5 µg/mL (≈ 0.813 µM) in assay [1]; not above 0.12 µg/mL in assay [2]; 8 µg/mL (≈ 13 µM) in assay [3]; 0.25 µg/mL (≈ 0.407 µM) in [4]; not above 0.12 µg/mL in [5]; not above 0.12 µg/mL in assay [6]. For the same compound, the MIC is not above 0.12 µg/mL in [7] (setting [16]); 0.25 µg/mL (≈ 0.407 µM) in assay [8]; not above 0.12 µg/mL in [9]; 2 µg/mL (≈ 3.25 µM) in assay [11]; 0.25 µg/mL (≈ 0.407 µM) in [13]; 1 µg/mL (≈ 1.63 µM) in assay [14]. In addition, the MIC in [15] was not above 0.12 µg/mL. The ED50 in assay [10] came out at 0.17 mg/kg; in [12] it was 0.16 mg/kg.
Consider `CC(C)(O/N=C(\C(=O)NC1C(=O)N2C(C(=O)O)=C(COC(=O)CCN)C[S+]([O-])C12)c1csc(N)n1)C(=O)O` (stereo not shown) [41 730], for which the MIC in assay [1] is 1 µg/mL (≈ 1.75 µM); in assay [3] it was 4 µg/mL (≈ 6.99 µM); in assay [4] it was 0.5 µg/mL (≈ 0.873 µM); in [5] it was not above 0.12 µg/mL; in [6], 0.25 µg/mL (≈ 0.437 µM); in assay [7] (setting [16]) it was not above 0.12 µg/mL. Further, the MIC was 0.5 µg/mL (≈ 0.873 µM) in assay [8]; not above 0.12 µg/mL in assay [9]; 0.25 µg/mL (≈ 0.437 µM) in [11]; 0.25 µg/mL (≈ 0.437 µM) in [13]; 0.25 µg/mL (≈ 0.437 µM) in assay [14]; 0.25 µg/mL (≈ 0.437 µM) in assay [15]. The ED50 in [10] came out at 0.79 mg/kg; in assay [12], 1.4 mg/kg.
As for `CC(C)(O/N=C(\C(=O)NC1C(=O)N2C(C(=O)O)=C(COC(=O)CCCN)C[S+]([O-])C12)c1csc(N)n1)C(=O)O` (stereo not shown) [41 854], the MIC is 0.5 µg/mL (≈ 0.852 µM) in [1]; 4 µg/mL (≈ 6.82 µM) in [3]; 0.25 µg/mL (≈ 0.426 µM) in [4]; not above 0.12 µg/mL in assay [5]; not above 0.12 µg/mL in [6]; not above 0.12 µg/mL in assay [7] (setting [16]). Moreover, the MIC in [8] is 0.25 µg/mL (≈ 0.426 µM); in assay [9] it was not above 0.12 µg/mL; in assay [11] it was 2 µg/mL (≈ 3.41 µM); in assay [13] it was 0.25 µg/mL (≈ 0.426 µM); in assay [14], 0.5 µg/mL (≈ 0.852 µM); in assay [15], 0.25 µg/mL (≈ 0.426 µM). Moreover, the ED50 stood at 0.19 mg/kg in assay [10] and 0.23 mg/kg in assay [12].
For `CC(C)(O/N=C(\C(=O)NC1C(=O)N2C(C(=O)O)=C(COC(=O)C3CCNCC3)C[S+]([O-])C12)c1csc(N)n1)C(=O)O` (stereo not drawn) [41 862, 7-[2-(2-Amino 4-thiazolyl)2-(2-carboxy 2-propyloxyimino)acetamido]3-(4-piperidinyl)carbonyl oxymethyl 3-cepheme 4-carboxylic1β-S-oxide acid trifluoroacetate syn isomer], the MIC is 0.5 µg/mL in assay [1]; not above 0.12 µg/mL in assay [2]; 4 µg/mL in assay [3]; 0.25 µg/mL in assay [4]; not above 0.12 µg/mL in assay [5]; not above 0.12 µg/mL in [6]. Besides, the MIC in [7] (Escherichia coli, 255/L.7) was 0.12 µg/mL; in assay [8] it was not above 0.25 µg/mL; in assay [9], not above 0.12 µg/mL; in [11] it was 1 µg/mL; in assay [13], 0.25 µg/mL; in assay [14], 0.25 µg/mL. Moreover, in assay [15], the MIC was not above 0.12 µg/mL. Also, the ED50 in [10] came to 0.1 mg/kg; in assay [12], 0.13 mg/kg.
